Assay results as given in publication PMC8647499, “Preclinical evaluation of strasseriolides A–D, potent antiplasmodial macrolides isolated from Strasseria geniculata CF-247,251” (Malaria Journal, 2021).
“And” between values parts separate entries of the source, which are not always exact repeats. Identical values can stand only once. Like-named read-outs stand apart in the source and are kept apart here.

Tests used:
[1] = test system: transgenic P. berghei line 676m1cl1 (PbGFP-Luccon), ANKA strain; assay: In vivo efficacy in P. berghei infected mice (luciferase activity); parameters: species or system Plasmodium berghei in Swiss Webster female mice; settings: chloroquine 20 mg/kg; for Parasitaemia (Luminescence arbitrary units), Average ± SD: 4 days from 48 h post-infection
Protocol: In vivo efficacy experiments were performed at the Anti-infectives Screening Core Services facility of the New York University School of Medicine. The transgenic P. berghei line 676m1cl1 parasite (PbGFP-Luccon) expressing the fusion GFP (mutant 3) and firefly luciferase (LucIAV) proteins generated in the reference clone of ANKA strain cl15cy1 was used. Swiss Webster female mice were infected with transgenic P. berghei line 676m1cl1 (PbGFP-Luccon) ANKA-infected 10³ red blood cells. Treatment was then started 48 h post-parasite infection by i.p. dosage of 22 mg/kg of strasseriolide D and 50 mg/kg of strasseriolide C. Vehicle only (PBS 2% methylcellulose, 0.5% Tween 80) and 20 mg/kg chloroquine were used as negative and positive controls. The infected mice were treated for four days, after which luciferase activity of the parasites was quantified 5 to 10 min after i.p. injection of 150 mg/kg D-Luciferin Potassium-salt (Goldbio) dissolved in PBS using an IVIS® Lumina II imager on the fifth day.
The Genedata Screener online application (Genedata AG, Basel, Switzerland) was used to compute IC50 values. The Smart Fit strategy with Hill model was selected as the choice for curve fitting. Where applicable, data are presented as mean ± standard deviation (SD). In Fig. 3, the significant differences between the vehicle controls and test compounds were calculated by the Student’s t test.

[2] = Metabolic stability assay in human liver microsomes; type: in vitro ADME; settings: for half-life: pH 7.4, 1 mg/mL protein; for Clearance Category: ranked by CLint
Protocol: Pretreatment of the 96-well ABgen-0765 reaction plates was the same as previously described above. Two microlitres (2 µL) of compounds (previously dissolved in DMSO) were pre-incubated with 98 µL of cofactor/buffer solution (0.1 M phosphate buffer of pH 7.4, 100 mM K3PO4, 3.3 mM MgCl2, 3.3 mM G6P, 1.3 mM NADPH, and 0.4 u/mL G6PDH) at 37 °C for 10 min. The reactions were then initiated by the addition of 100 µL of HLM solution (at final protein concentration of 1 mg/mL), after which they were stopped at pre-determined incubation times of 0, 10, 15, 30, 45 and 60 min by adding 90 µL acetonitrile containing internal LC–MS–MS standards and shaking at 180 Hz. The samples were centrifuged to sediment the protein precipitates and the supernatants were analysed by LC–MS–MS as previously described above. The integration of each analyte (the […]) and internal standard peak area was performed by the Analyst® software version 1.5.2 and used to calculate the percentage of remaining compound at each incubation time. The natural logarithm of the percentage of the remaining parent compound was plotted against the incubation time and used to calculate the half-life by the following equation:
Half-life (T ½ min) = 0.693/k, where k is the slope of a plot of the natural log of the percentage parent compound remaining vs. time.
The intrinsic clearance (CLint) was determined by the equation: CLint
=Ln2/t1/2min∗volumeincubationmL/microsomalproteinmg∗45MPPGL1500ghumanliver/70kghumanbodyweightj
Units for CLint were expressed as mL/min/mg microsomal protein and MPPGL = mg microsomal protein per gram liver.

mice = assay: In vivo toxicity in mice after i.v. injection
Protocol: (§1) Three Balb/C mice (6–8 weeks old) were intravenously injected with 25 mg/kg of strasseriolide D dissolved in 200 µL of vehicle (0.5%HPMC, 0.5% Tween 80 and 0.5% Benzyl alcohol in water). Blood samples were collected by pricking the […] on the leg of each mouse at time points 1.5 (T 1.5 h), 5 (T 5 h) and 24 h (T 24 h). From the harvested blood, 50 µL plasma were prepared for all the samples and stored at -80 °C until needed. A previously developed LC–MS–MS method (see supporting information) was used to determine the plasma concentration of strasseriolide D as described below.
(§2) Similar sample preparation and LC–MS–MS analysis were respectively performed for mice intravenously injected with strasseriolides A and C as test compounds and mice blood samples collected at 30 min (T 30 M), 2 h (T 2 h), 6 h (T 6 h) and 24 h (T 24 h). […] For strasseriolides A, B and C as test compounds; strasseriolides C, D and B were respectively used as internal standards. After LC–MS–MS analysis, the plasma concentration of compound vs. time data was determined for each strasseriolide.
Animals were observed individually at 15, 30 and 60 min after dosing and periodically during the first 24 h for any clinical signs of toxicity or mortality. The toxicity evaluation was carried out by observing behaviour parameters, including the Grimace scale parameters. The mice were sacrificed, and the main organs were examined by visual inspection during autopsy.

[3] = test system: Plasmodium falciparum strain 3D7 whole parasites; parameters: method as in PMID 32808790; settings: in vitro, read-out: IC50 against Plasmodium falciparum strain 3D7; cited from earlier work
[4] = Quantification of compounds in mice plasma by LC-MS-MS and PK parameters after i.v. injection; type: in vivo; settings: for Plasma Conc. @Tinitial: mice, Tinitial 0.5 h (A, C), 0.13 h (B), 1.5 h (D)
Protocol: as §1
Ten millimolar (10 mM) DMSO stocks of strasseriolide D (the test compound) and strasseriolide A (used as internal standard,) were prepared. From the strasseriolide D stock, a 59.7 µM (27,000 ppb) working concentration was made in DMSO and an aliquot of this was serially diluted (½) in reconstitution solution (1:1 of acetonitrile: H2O with 0.1% formic acid) to create a six-point calibration curve in triplicate. Three different quality control (QC) concentrations of strasseriolide D at 59.7, 0.74, and 0.25 µM (i.e. 27,000 ppb, 333 ppb and 111 ppb) were also prepared in duplicate. From the strasseriolide A (internal standard) stock, a 6.2 µM (2700 ppb) working concentration was prepared in DMSO.
Blank mouse plasma (prepared from non-injected mouse) was retrieved from the freezer (− 80 °C) and kept on ice to thaw. The sample was vortexed adequately and 15 µL aliquots transferred into 0.7 mL Eppendorf tubes after which 35 µL of Milli-Q water were added and vortexed. Triplicate sets of the diluted plasma were then respectively spiked with 2 uL of each concentration of the calibration curves of strasseriolide D. Another triplicate set of the diluted plasma was spiked with 2 µL of each concentration of the standard QC solutions. All the above samples were also spiked with 2 µL of strasseriolide A (the internal standard)). To serve as blank samples, a fresh triplicate set of diluted plasma were spiked with 4 µL of DMSO. Non-matrix samples were also prepared by spiking 100 µL aliquots of reconstitution solution with 2 µL of the standard QC solutions and 2 µL of internal standard.
Fifteen microlitres (15 µL) plasma from the various time points of the strasseriolide D-injected mice, were respectively transferred into 0.7 mL Eppendorf tubes. To each sample, 37 µL of Milli-Q water were added, vortexed and spiked with 2 µL of strasseriolide A (internal standard). Two hundred microlitres (200 µL) of ice-cold acetonitrile were added to all of the matrix (plasma-containing) samples and centrifuged at 13,300 rpm for 15 min at 4 °C. Subsequently, 180 µL aliquots were carefully transferred (without disturbing the protein precipitate) from each tube into clean HPLC vials and evaporated to dryness in an EZ2 Genevac at room temperature. The dried samples were then reconstituted in 40 µL of reconstitution solution by vortexing. The samples were placed in an auto-sampler drawer for LC–MS–MS analysis and quantification of strasseriolide D (the test compound) in mice plasma.
as §2
116 Table S2. QC table used to calculate the precision and accuracy of the method.
Compound Expected No. Experimental STD % %
conc. in values mean conc. deviation CV Accuracy
118 (5) The mean recovery rate for the test compound (strasseriolide B) – this was calculated
119 to be 29 % by comparing the plasma QC peak area ratios at the established retention time […]

HepG2 liver cells = test system: HepG2 liver cells; parameters: method as in PMID 32808790; settings: cited from earlier work
[5] = Balb/C, mouse, in vivo, iv, 25 mg/kg, 24 h
[6] = Balb/C, mouse, in vivo, iv, 25 mg/kg
[7] = Balb/C, mouse, in vivo, iv, 25 mg/kg, Ave. Conc. in plasma

## CCN(CC)CCCC(C)Nc1ccnc2cc(Cl)ccc12 (stereo not drawn) [Chloroquine, chloroquine, reference compound]
[1]; Table S7/Fig. 3A experiment: strasseriolide C 50 mg/kg i.p., read day 5, four replicates
  Parasitaemia (Luminescence arbitrary units), Average ± SD: 0.00 Luminescence arbitrary units
[1]; Table S7 experiment: strasseriolide C 50 mg/kg i.p., individual mice
  Parasitaemia (Luminescence arbitrary units), single replicates: 0.00 Luminescence arbitrary units
[1]; Table S8/Fig. 3B experiment: strasseriolide D 22 mg/kg i.p., read day 5, five replicates
  Parasitaemia (Luminescence arbitrary units), Average ± SD: 3 × 10^3 Luminescence arbitrary units

## C/C1=C\[C@H](C)CCC(=O)/C(C)=C/[C@H](C)C[C@@H](C)CC[C@@H]([C@@H](C)C(=O)O)OC(=O)[C@@H](C)C1 [Strasseriolide A, strasseriolide A]
[2]
  half-life: 6.47 ± 1.05 min
  Clearance Category: High
mice; [5]
  in vivo toxicity / mortality in mice: survived until 24 h post-i.v. injection
mice; mouse, in vivo, iv, 25 mg/kg
  in vivo toxicity / mortality in mice: non-toxic
[3]
  IC50: 9.81 µM
[4]; [6]
  AUC 0-t/0-inf_obs: 0.9738
  AUC(0-inf): 510 ng·h/mL and 1.17 µM·h
  C0: 378 ng/mL and 870 nM
  Clast_obs/Cmax: 0.009713
  Cmax: 216 ng/mL and 498 nM
  MRT: 2.98 h
  MRT inf: 2.99 h
  Tmax: 0.5 h
  Vss_obs: 0.1465 (mg/kg)/(ng/ml)
  Vz_obs (plasma distribution volume): 312.4 L/kg
  k el: 4.36e-05 s⁻¹
[4]; [5]
  Calc. Conc. in plasma, individual mice: < 2.1 ng/mL
  Plasma Conc. @T24 h: <4.8 nM
[4]; Balb/C, mouse, in vivo, iv, 25 mg/kg, 24 h, read-out: Calc. Conc. in plasma, individual mice
  concentration at 8 min: < 0.00484 µM
[4]; Balb/C, mouse, in vivo, iv, 25 mg/kg, AUC 0-t
  AUC(0-t): 1.14 µM·h and 496 ng·h/mL
[4]; Balb/C, mouse, in vivo, iv, 25 mg/kg, AUC0−t
  AUC(0-t): 1.14 µM·h
[4]; [7]
  concentration at 0.5 h: 498 nM
  concentration at 2 h: 93.5 nM
  concentration at 6 h: 11.6 nM
  concentration at 24 h: < 4.84 nM
[4]; Balb/C, mouse, in vivo, iv, 25 mg/kg, Calc. Conc. in plasma, individual mice
  concentration at 24 h: < 2.1 ng/mL and < 4.84 nM
[4]; Balb/C, mouse, in vivo, iv, 25 mg/kg, Plasma Conc. @T24 h
  concentration at 24 h: < 4.8 nM
[4]; Balb/C, mouse, in vivo, iv, 25 mg/kg, T1/2 (apparent terminal elimination half-life)
  half-life: 4.4 h
[4]; Balb/C, mouse, in vivo, iv, 25 mg/kg, t1/2
  half-life: 4.41 h
[4]; mouse, in vivo, iv, 25 mg/kg
  Cl_obs: 0.04907 (mg/kg)/(ng/ml)/h

## C/C1=C\[C@H](C)CC[C@@H](O)/C(C)=C/[C@H](C)C[C@@H](C)CC[C@@H]([C@@H](C)C(=O)O)OC(=O)[C@@H](C)C1 [Strasseriolide B, strasseriolide B]
[2]
  half-life: 8.7 ± 2.4 min
  Clearance Category: High
mice; i.v. 25 mg/kg
  time to death of all injected mice: *Only Tinitial and the Plasma Conc @ Tinitial were recorded as all the mice injected with this compound died under 8 min
mice; i.v. 25 mg/kg, three mice, observed 24 h
  in vivo toxicity / mortality in mice: all died just under eight minutes post-i.v. injection
mice; i.v. 10, 5 and 1 mg/Kg
  in vivo toxicity / mortality in mice at lower dosages: all resulted in death of the mice injected
[3]
  IC50: 0.013 µM
HepG2 liver cells
  in vitro toxicity against HepG2 liver cells: no in vitro toxicity
[4]; Balb/C, mouse, in vivo, iv, 25 mg/kg, i.v. 25 mg/kg, T 8 minutes, read-out: Ave. Conc. in plasma
  concentration at 8 min: 19.6 µM
[4]; Balb/C, mouse, in vivo, iv, 25 mg/kg, i.v. 25 mg/kg, T 8 minutes, read-out: Calc. Conc. in plasma, individual mice
  concentration at 8 min: 8110 ng/mL and 18.6 µM
[4]; i.v. 25 mg/kg, T 8 minutes
  Calc. Conc. in plasma, individual mice: 9098.0 ng/mL
[4]; i.v. 25 mg/kg, T 8 minutes, listed as strasseriolide B
  Calc. Conc. in plasma, individual mice: 8419.0 ng/mL
[4]; i.v. 25 mg/kg, T 8 minutes, listed as strasseriolide B, read-out: Calc. Conc. in plasma, individual mice
  concentration at 8 min: 19.3 µM
[4]; i.v. 25 mg/kg, T 8 minutes, read-out: Calc. Conc. in plasma, individual mice
  concentration at 8 min: 20.9 µM
[4]; i.v. 25 mg/kg
  Plasma Conc. @Tinitial: 19600 nM
[4]; i.v. 25 mg/kg, listed as B*
  Plasma Conc. @Tinitial: 19600 ± 1200 nM
